{"source": "patent US20210115087A1", "about": "“CYCLIC PEPTIDE INHIBITORS OF HEDGEHOG PROTEINS” (University of Rochester, priority 2016, published 2021)", "key": {"[1]": {"tested_on": "GST-Shh, GST-Ihh, and GST-Dhh", "assay": "Hedgehog analog selectivity: relative binding at fixed peptide concentration", "set-up": "species or system human", "conditions": "peptide at fixed concentration of 0.5-1 μM, normalized to highest response", "experimental": "FIG. 14. Hh analog selectivity for linear HHIP L2-derived peptide (HL2-pep) and representative cyclic peptide inhibitors. The data relative to the peptides were derived from direct binding experiments with immobilized Hedgehog proteins (i.e., GST-Shh, GST-Ihh, and GST-Dhh), biotinylated peptides (i.e., Biot-HL2-pep, Biot-HL2-m1, Biot-HL2-m2, Biot-HL2-m3, Biot-HL2-m4, Biot-HL2-m4), and HRP-conjugated streptavidin. The data relative to robotnikinin were derived from competition experiments ([…]+400 nM HL2-m5). For each compound, the response values were normalized to the highest binding response measured across the three Hedgehog analogs.\nHedgehog analog selectivity. KD values for FLAG-HL2-m5 binding to Ihh and Dhh were determined using the colorimetric immunoassay described earlier but using GST-Ihh and GST-Dhh-coated plates, respectively. The peptide relative binding affinity for the three isoforms of Hedgehog was determined using the same assay and peptide solutions at a fixed concentration of 0.5-1 μM. In this case, binding responses were subtracted against the blank (no peptide sample) and normalized to the highest value measured across the three Hh isoforms. Mean values and standard deviations were calculated from experiments performed at least in triplicate."}, "[2]": {"tested_on": "Shh-mediated Hedgehog pathway signaling in NIH3T3 cells", "assay": "Gli-reporter dual luciferase assay in Shh-N-stimulated NIH-3T3 cells", "format": "cell-based, mouse", "conditions": "4 nM Shh-N, 24 hours; read-out: half-maximal inhibitory concentration (IC50), suppression of luminescence signal", "text": "The ability of the compounds provided herein to inhibit ligand-induced activation of the Hedgehog pathway in a cell can be assessed by means of a cell based assay. In an exemplary procedure, a suitable reporter plasmid is introduced in a Hedgehog responsive mammalian cell. Typically, the reporter plasmid contains a reporter gene encoding (e.g., a gene encoding for firefly luciferase) under a Gli-controlled promoter, thereby providing a reporter gene that is responsive to the activity of the Gli transcription factors. […] The reporter cells are incubated with the Hedgehog protein in the presence and in the absence of the cyclic peptide. The extent of Hedgehog pathway suppression can be determined based on relative activity of the luciferase reporter enzyme, which in turn can be determined by measuring the luminescence signal after addition of a luminogenic substrate of the luciferase enzyme.\nTo this end, we utilized a cell-based luciferase reporter assay, (Chen, Taipale et al. 2002) in which mouse embryo fibroblasts (NIH3T3) are transfected with vectors encoding for a Firefly luciferase (FF) gene under a Gli-controlled promoter and a Renilla luciferase (Ren) gene under a constitutive promoter. Hedgehog pathway suppression is measured based on the decrease in Firefly/Renilla luminescence ratio in the presence of the inhibitor. […] (Chen, Taipale et al. 2002)\nGli-reporter Assay. NIH-3T3 cells were passaged twice and then plated in 24-well culture dishes at 5×10^5 cells/well in DMEM containing 10% FBS and 1% penicillin/streptomycin. After 24 hours, the cells were transfected (TransIT-2020) with a mixture of a firefly luciferase reporter construct under the control of a Gli1 inducible promoter and a Renilla luciferase reporter construct under a constitutive promoter (40:1) (Cignal GLI Reporter Luciferase Kit, Qiagen). Cells were allowed to reach confluency, at which point the media was changed to Opti-MEM containing 1% FBS and added with 4 nM Shh-N(R&D Systems, Minneapolis, Minn.) in sterile PBS buffer. Synthetic HL2-lin and HL2-m5 were added at the same time at varying concentration (0.01-30 uM), and control cells were prepared by adding vehicle only (1% DMSO). Purmorphamine-treated cells were prepared by adding 5 μM purmorphamine to wells containing 10 μM HL2-m5. After growth for 24 hours at 37° C. in a humidified chamber, the cells were harvested and analyzed for Firefly and Renilla luciferase activity using a Tecan Spark-20 plate reader and a DLR kit (Promega) according to the manufacturer's instructions. Luminescence values were normalized to those of the Shh pathway activated control cells. Mean values and standard deviations were calculated from experiments performed at least in duplicate."}, "[3]": {"tested_on": "NIH-3T3 cells", "assay": "Cell morphology, growth behavior and titer in the presence of the peptide", "format": "cell-based, mouse", "conditions": "highest concentration range applied"}, "[4]": {"tested_on": "Hedgehog pathway target genes Gli, Gi2 and Ptch1", "assay": "Gene transcription analyses by real-time PCR in Shh-N-stimulated NIH-3T3 cells", "format": "cell-based, mouse", "conditions": "HL2-m5 at 10 μM", "experimental": "The ability of the compounds to suppress a transcriptional response associated with activation of the Hedgehog pathway can be assessed by incubating a Hedgehog responsive mammalian cell with the Hedgehog ligand in the presence and in the absence of the cyclic peptide inhibitor. The messenger RNA (mRNA) is extracted and a DNA the mRNA (cDNA) is produced via reverse transcription. The transcriptional level of canonical Hedgehog target genes such as Gli1 and Ptch1 is then determined via real-time PCR and/or via PCR followed by DNA gel electrophoresis. From the resulting dose-response curves, the activity of the cyclic peptide toward suppressing Hedgehog induced transcriptional activity can be established and quantitatively measured by means of IC50 values.\nTo further validate HL2-m5 as a Hedgehog pathway antagonist, the effect of this compound on the transcriptional activity of two canonical target genes of the pathway, Gi and Ptch1 (FIG. 1) was examined via real-time PCR. […]\nGene transcription analyses. […] The relative amounts of Gi, Gi2, and Ptch1 mRNA transcripts were determined by real-time PCR (Bio-Rad CFX thermocycler) using the primers listed in Table S1 and SYBR green TAQ reagent (Bio-Rad) according to the manufacture's protocol. […] Mean values and standard deviations were calculated from measurements performed in quadruplicate."}, "[5]": {"target": "T1, GST-Dhh (Homo sapiens, UniProt O43323)", "T1 construct": "poly-histidine (N); made in house; host or cells: E. coli BL21(DE3), vector pET42b", "assay": "Competition assay: inhibition of FLAG-HL2-m5 binding to GST-Dhh", "conditions": "10 μM robotnikinin and 400 nM FLAG-HL2-m5", "experimental": "(§1) The immunoassay described above can be adapted to serve as a competition assay. In this case, a fixed amount of the labeled peptide is incubated with the immobilized Hedgehog protein in the presence of a test compound (e.g., another cyclic peptide or a small-molecule compound). The test molecule competes with the cyclic peptide for binding to the immobilized Hedgehog protein. The amount of bound peptide is quantified using the colorimetric assay described above and the extent of inhibition in the presence of the test compound is compared to that in the absence of it. From the resulting dose-response curves, a IC50 value for the test compound can be obtained. Using this assay and the cyclic compounds provided herein, the Hedgehog inhibitory activity of a test molecule can be evaluated. […]\n(§2) While Shh is the most abundant isoform among Hedgehog proteins, paracrine/autocrine Hedgehog signaling in normal and cancer cells is also mediated by the Indian (Ihh) and Desert (Dhh) isoforms. […] Since the Hh isoform selectivity of robotnikinin had not previously investigated, this property was examined by means of a competition assay, whereby inhibition of FLAG-HL2-m5 binding to plate-immobilized GST-Shh, GST-Ihh, or GST-Dhh is measured via the HRP-conjugated anti-FLAG antibody.\n(§3) Competition assay. […] Mean values and standard deviations were calculated from experiments performed in triplicate."}, "[6]": {"tested_on": "Hedgehog pathway activation in cells", "conditions": "similar cell-based assay; read-out: IC50, blocking Hedgehog pathway activation in cells; cited from earlier work"}, "[7]": {"target": "T2, GST-Shh (Homo sapiens, UniProt Q15465)", "T2 construct": "poly-histidine (N); made in house; host or cells: E. coli BL21(DE3), vector pET42b", "T2 sequence (Q15465 24-462)": "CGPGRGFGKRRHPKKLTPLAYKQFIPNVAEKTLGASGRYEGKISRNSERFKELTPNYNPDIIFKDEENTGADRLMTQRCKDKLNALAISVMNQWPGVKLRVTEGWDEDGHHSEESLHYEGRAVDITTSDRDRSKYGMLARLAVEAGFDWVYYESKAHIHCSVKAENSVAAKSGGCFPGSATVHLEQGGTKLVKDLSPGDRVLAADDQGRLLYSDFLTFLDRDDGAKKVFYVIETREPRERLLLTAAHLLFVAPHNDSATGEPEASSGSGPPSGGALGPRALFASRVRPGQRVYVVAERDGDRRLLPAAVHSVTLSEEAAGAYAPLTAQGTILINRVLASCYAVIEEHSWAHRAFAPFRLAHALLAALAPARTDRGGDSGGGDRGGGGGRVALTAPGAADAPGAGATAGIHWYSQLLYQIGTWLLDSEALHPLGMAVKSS", "assay": "Competition assay: inhibition of FLAG-HL2-m5 binding to GST-Shh", "conditions": "10 μM robotnikinin and 400 nM FLAG-HL2-m5; read-out: % inhibition of FLAG-HL2-m5 binding in the presence of GST-Shh", "experimental": "as §1, §2, §3"}, "[8]": {"target": "T3, GST-Ihh (Homo sapiens, UniProt Q14623)", "T3 construct": "poly-histidine (N); made in house; host or cells: E. coli BL21(DE3), vector pET42b", "T3 sequence (Q14623 28-411)": "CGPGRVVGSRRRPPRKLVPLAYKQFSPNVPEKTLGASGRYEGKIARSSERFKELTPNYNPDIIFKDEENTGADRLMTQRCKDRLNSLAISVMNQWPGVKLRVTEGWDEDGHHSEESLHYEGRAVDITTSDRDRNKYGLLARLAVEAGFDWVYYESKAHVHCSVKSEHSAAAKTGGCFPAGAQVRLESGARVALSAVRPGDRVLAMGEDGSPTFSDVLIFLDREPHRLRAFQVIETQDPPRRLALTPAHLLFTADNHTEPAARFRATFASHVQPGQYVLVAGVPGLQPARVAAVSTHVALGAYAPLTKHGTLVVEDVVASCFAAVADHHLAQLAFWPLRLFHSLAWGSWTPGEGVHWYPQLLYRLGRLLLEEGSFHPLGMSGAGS", "assay": "Competition assay: inhibition of FLAG-HL2-m5 binding to GST-Ihh", "conditions": "10 μM robotnikinin and 400 nM FLAG-HL2-m5", "experimental": "as §1, §2, §3"}}, "note": "*1 amine or outer side, *2 acyl side, *3 side chain or, on linkers, in order; H or OH if unused. Where a SMILES comes first, the peptide text is derived from it. Bridges are numbered along the chain shown (N, C = ends). CH2CH2 = C(C[*:2])[*:1]", "data": [{"smiles": "CSCC[C@@H]1NC(=O)[C@H](C)NC(=O)[C@H](CCC(=O)O)NC(=O)[C@@H](NC(=O)[C@H](Cc2c[nH]c3ccccc23)NC(=O)[C@H](CO)NC(=O)[C@H](CC(C)C)NC(=O)[C@@H](NC(C)=O)[C@@H](C)O)Cc2ccc(cc2)OCCSC[C@@H](C(=O)N[C@H](C(=O)N[C@@H](CC(=O)O)C(N)=O)[C@@H](C)O)NC(=O)[C@H](CCSC)NC(=O)[C@H](CC(=O)O)NC1=O", "note": "[HL2-m5] (Ac-TLSWYEAMDMCTD-NH2; linker 5-11 via CH2CH2)", "values": [{"measurement": "Hedgehog analog selectivity profile", "setting": "[1]", "value": "nearly identical activity toward Shh and Ihh"}, {"measurement": "IC50", "setting": "[2]", "value": 0.25, "unit": "µM"}, {"measurement": "cytotoxicity (cell morphology, growth behavior and titer)", "setting": "[3]", "value": "lack of cytotoxicity"}, {"measurement": "mRNA level for the transcription factor Gli2", "setting": "[4]; ShhN-stimulated cells", "value": "suppresses"}, {"measurement": "reduction of the mRNA levels of Gi and Ptch1", "setting": "[4]; relative to compound-untreated ShhN-stimulated cells", "value": "75-85%"}]}, {"smiles": "O=C(C[C@@H]1C/C=C/CCC(=O)O[C@H](c2ccccc2)CNC1=O)NCc1ccc(Cl)cc1", "note": "[robotnikinin]", "values": [{"measurement": "affinity toward Dhh relative to Shh", "setting": "[5]", "value": "significantly lower affinity"}, {"measurement": "IC50", "setting": "[6]", "value": "~15", "unit": "µM"}, {"measurement": "inhibition at 10 µM", "setting": "[7]", "value": 34, "unit": "%"}, {"measurement": "affinity toward Ihh relative to Shh", "setting": "[8]", "value": "significantly lower affinity"}]}]}
